Laboratory results: patent US20250074891A1 (Anaxis Pharma Pty Ltd., priority 2021, published 2025)

Key:
MLKL = MLKL (Homo sapiens (Human), UniProt Q8NB16); assay: Binding to MLKL (KD), in vitro; conditions: in vitro assays
[1] = system: U937 human histiocytic leukemia cell line; assay: Cellular assay: inhibition of TSQ induced necroptosis (CellTitre-Glo); conditions: Homo sapiens, U-937; U937 cells, TSQ cocktail, 48 hours, Table 38; read-out: Inhibition of TSQ-induced necroptosis (IC50 cell-based assay)
Summary of the method: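 U937 cells (20,000/well) pre-dosed with compound (10-point, 1:3 from 36 μM, 0.3% DMSO), then TSQ (hTNF-Fc 100 ng/ml, Smac mimetic 500 nM, Q-VD-OPh 10 μM) for 48 h at 37 °C. Viability by CellTiter-Glo luminescence, normalised to DMSO (100%) and DMSO+TSQ (0%); IC50 from 4-parameter fit.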

endogenous MLKL in U937 = endogenous MLKL in U937 (Homo sapiens (Human), UniProt Q8NB16); assay: Degradation assay: degradation of endogenous MLKL in human cells (Western blot); conditions: 24 h incubation, read-out: Degradation of endogenous MLKL in U937 (DC50 cell-based assay in μM)
U937 cells = assay: Counter screen: cell viability without TSQ cocktail (off-target effect); parameters: species or system human; conditions: Homo sapiens, U-937, Table 38, read-out: Off-target effect (IC50 cell-based assay)
Method: Counter screen: In parallel, all compounds were tested for their ability to affect cell viability. The same U937 cells were treated with compound in DMSO without the TSQ cocktail. This counter screen enabled evaluation of off-target effects. In this case, cell viability was measured by CelltiterGlo.

MLKL (full length) = MLKL (full length) (Homo sapiens (Human), UniProt Q8NB16); assay: KINOMEscan binding assay, MLKL (full length); conditions: Table 36
Method: Kinase assays. For most assays, kinase-tagged T7 phage strains were grown in parallel in 24-well blocks in an E. coli host derived from the BL21 strain. E. coli were grown to log-phase and infected with T7 phage from a frozen stock (multiplicity of infection=0.4) and incubated with shaking at 32° C. until lysis (90-150 minutes).
The Hill Slope was set to −1.

Sequence of endogenous MLKL in U937 (Q8NB16 whole entry): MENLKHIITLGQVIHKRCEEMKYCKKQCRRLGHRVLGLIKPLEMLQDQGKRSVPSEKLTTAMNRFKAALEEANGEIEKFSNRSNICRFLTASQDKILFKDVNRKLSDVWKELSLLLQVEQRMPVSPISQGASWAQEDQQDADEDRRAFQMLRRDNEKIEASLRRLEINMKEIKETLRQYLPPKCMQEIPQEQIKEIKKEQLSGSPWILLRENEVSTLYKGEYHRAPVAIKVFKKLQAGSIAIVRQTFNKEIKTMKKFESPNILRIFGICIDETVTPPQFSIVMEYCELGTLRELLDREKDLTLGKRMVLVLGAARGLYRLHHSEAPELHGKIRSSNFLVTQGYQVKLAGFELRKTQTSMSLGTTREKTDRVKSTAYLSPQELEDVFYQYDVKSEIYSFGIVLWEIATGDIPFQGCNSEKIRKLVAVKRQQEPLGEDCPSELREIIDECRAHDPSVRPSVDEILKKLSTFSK
Sequence of MLKL (full length) (Q8NB16 whole entry): as above
Sequence of MLKL (Q8NB16 whole entry): as above

Row | Kd (MLKL) [nM] | Compound | IC50 [1] [nM] | DC50 (endogenous MLKL in U937) [µM] | IC50 (U937 cells) [nM] | Kd (MLKL (full length)) [nM]
1 | ~2000 | CCS(=O)(=O)Nc1ccc(-c2n[nH]c(Nc3ccc(C(=O)OCCCCC(=O)N[C@H](C(=O)N4C[C@H](O)C[C@H]4C(=O)NCc4ccc(-c5scnc5C)cc4)C(C)(C)C)cn3)c2C#N)cc1O[C@@H](C)c1ccc(F)cc1 [Compound 1061, 4-{[(2S)-1-[(2S,4R)-4-hydroxy-2-({[4-(4-methyl-1,3-thiazol-5-yl)phenyl]methyl}carbamoyl)pyrrolidin-1-yl]-3,3-dimethyl-1-oxobutan-2-yl]carbamoyl}butyl 6-[(4-cyano-3-{4-ethanesulfonamido-3-[(1S)-1-(4-fluorophenyl)ethoxy]phenyl}-1H-pyrazol-5-yl)amino]pyridine-3-carboxylate] |  |  |  | 
2 |  | CCS(=O)(=O)Nc1ccc(-c2n[nH]c(Nc3ccc(OCCCCC(=O)N[C@H](C(=O)N4C[C@H](O)C[C@H]4C(=O)NCc4ccc(-c5scnc5C)cc4)C(C)(C)C)cn3)c2C(N)=O)cc1OCc1ccc(F)cc1 [Compound 1024, 3-{4-ethanesulfonamido-3-[(4-fluorophenyl)methoxy]phenyl}-5-{[5-(4-{[(2S)-1-[(2S,4R)-4-hydroxy-2-({[4-(4-methyl-1,3-thiazol-5-yl)phenyl]methyl}carbamoyl)pyrrolidin-1-yl]-3,3-dimethyl-1-oxobutan-2-yl]carbamoyl}butoxy)pyridin-2-yl]amino}-1H-pyrazole-4-carboxamide] | < 1000 | < 1 | > 10000 | < 10
3 |  | CCS(=O)(=O)Nc1ccc(-c2n[nH]c(Nc3ccnc(OCCCCC(=O)N[C@H](C(=O)N4C[C@H](O)C[C@H]4C(=O)NCc4ccc(-c5scnc5C)cc4)C(C)(C)C)c3)c2C(N)=O)cc1 [Compound 1013, 3-(4-ethanesulfonamidophenyl)-5-{[2-(4-{[(2S)-1-[(2S,4R)-4-hydroxy-2-({[4-(4-methyl-1,3-thiazol-5-yl)phenyl]methyl}carbamoyl)pyrrolidin-1-yl]-3,3-dimethyl-1-oxobutan-2-yl]carbamoyl}butoxy)pyridin-4-yl]amino}-1H-pyrazole-4-carboxamide] | 1000 to 10000 | 1 to 10 | > 10000 | < 10
4 |  | Cc1ncsc1-c1ccc(CNC(=O)[C@@H]2C[C@@H](O)CN2C(=O)[C@@H](NC(=O)CCCCCCCn2ccc(Nc3[nH]nc(-c4ccc(NS(=O)(=O)C(F)F)c(O[C@@H](C)c5ccc(F)cc5)c4)c3C(N)=O)n2)C(C)(C)C)cc1 [Compound 1042, 3-[4-(difluoromethanesulfonamido)-3-[(1S)-1-(4-fluorophenyl)ethoxy]phenyl]-5-{[1-(7-{[(2S)-1-[(2S,4R)-4-hydroxy-2-({[4-(4-methyl-1,3-thiazol-5-yl)phenyl]methyl}carbamoyl)pyrrolidin-1-yl]-3,3-dimethyl-1-oxobutan-2-yl]carbamoyl}heptyl)-1H-pyrazol-3-yl]amino}-1H-pyrazole-4-carboxamide] | < 1000 | 1 to 10 | 1000 to 10000 | < 10
5 |  | CCS(=O)(=O)Nc1ccc(-c2n[nH]c(Nc3ccc(C(=O)OCCCCCC(=O)N[C@H](C(=O)N4C[C@H](O)C[C@H]4C(=O)NCc4ccc(-c5scnc5C)cc4)C(C)(C)C)cn3)c2C(N)=O)cc1O[C@@H](C)c1ccc(F)cc1 [Compound 1057, 5-{[(2S)-1-[(2S,4R)-4-hydroxy-2-({[4-(4-methyl-1,3-thiazol-5-yl)phenyl]methyl}carbamoyl)pyrrolidin-1-yl]-3,3-dimethyl-1-oxobutan-2-yl]carbamoyl}pentyl 6-[(4-carbamoyl-3-{4-ethanesulfonamido-3-[(1S)-1-(4-fluorophenyl)ethoxy]phenyl}-1H-pyrazol-5-yl)amino]pyridine-3-carboxylate] | < 1000 | < 1 | > 10000 | < 10
